Data on five substances can be found in patent US12629408B2, “Peptides with anti-tumor activity” (UNIVERSITA' DEGLI STUDI DI PADOVA, priority 2019, dated 2026).

Read-outs that look alike come from different tables or passages of the source. Square brackets hold non-standard residues; d marks the D form. Ends that are not written are not given here. Ahx = NCCCCCC(=O)O; βAla = NCCC(=O)O

Data set [1] deals with HeLa cervical cancer cell line. The experiment in a line: Cell viability after treatment with ACPP-HK2 sequence variants. In kind it is cell-based, human. The note with it: between 5 and 50 μM, 18 or 36 hours. The text has this: FIGS. 9A and 9B report cell viability after treatment of tumor cells (HeLa cervical cancer cell line) at various concentrations and times with the peptides ACPP-HK2 (SEQ ID NO:1), ACPP-HK2 II (SEQ ID) NO: 8), ACPP-HK2 III (SEQ ID NO: 9) and ACPP-HK2 IV (SEQ ID NO:10).

Data set [2] relates to murine breast cancer cell line 4T1. The data set can be described thus: In vivo breast cancer, 4T1 subcutaneous tumor, intraperitoneal injections (FIG. 4). The note with it: 4T1, intraperitoneal, 60 nmoles every 12 hours up to 60 hours. More on the design: species or system mice. Here is the method:
In this experiment (FIG. 4), 200,000 murine breast cancer cell line 4T1 were injected subcutaneously into female mice. At 9 days post-inoculation of the cells, the mice were divided into two experimental groups and 60 nmoles of peptides (ACPP-HK2 or ACPP-SCR) dissolved in 500 μl of saline solution were injected intraperitoneally. The injections followed one the other every 12 hours up to 60 hours and at 72 hours the experiment ended.

Data set [3] concerns murine colon carcinoma line CT26. The data set can be described thus: In vivo colon cancer, CT26 subcutaneous tumor, intraperitoneal injections (FIGS. 2, 3). Details: species or system Balb/c mice. Here is the method: (§1) 100,000 tumor cells from the murine colon carcinoma line CT26 were injected subcutaneously (in the right flank) to male Balb/c mice. The transplanted cells give rise to a subcutaneous tumor clearly visible from the outside in just over a week. Using this in vivo tumorigenesis procedure, we conducted three different experiments (described below) whose results are represented in FIGS. 1, 2 and 3.
Administration was performed every 12 hours by means of intraperitoneal injections of 500 μl each containing 30 nmoles of peptide (ACPP-HK2 or ACPP-SCR). […] Every 48 hours the size of the tumors was measured externally, and their volumes calculated.
In this experiment, a double dose of peptides (60 nmoles/injection) was administered compared to the second experiment, again by intraperitoneal injection.

Data set [4] deals with non-tumor tissues. The data set can be described thus: Autopsy and histological evaluation of internal organs of treated mice.
Text: (§2) At the end of each experiment shown in FIGS. 2, 3 and 4, and described in Example 2, male and female Balb/c mice underwent a complete autopsy with the assistance of an anatomopathologist expert. […] The group of mice not receiving any peptide treatment (NaCl) acts as an additional control.
(§3) List of organs or tissues analyzed: heart, skeletal muscle, kidney, spleen, lung, liver, brain, intestine, pancreas, bone marrow, lymph nodes, thyroid gland, parathyroid glands, and adrenal glands.
The test system of data set [5] is non-tumor tissues. The note with it: mouse, in vivo.
Text: as §2, §3
Data set [6] deals with murine colon carcinoma line CT26. The experiment in a line: In vivo colon cancer, CT26 subcutaneous tumor, injection into the tumors (FIG. 1). More on the design: species or system Balb/c mice. As for the experimental part:
as §1
At 8 days post-cell inoculation, the mice were divided into three groups (FIG. 1) and saline boluses (NaCl) without any other solute, or containing the active form of ACPP-HK2 resulting from the proteolytic cut (pepHK2, 2 nmol/injection), or finally containing the entire ACPP-HK2 (2 nmol/injection) were injected into the tumors. Each bolus consisted of 20 μl solution and was injected every 12 hours up to 60 hours. 72 hours after the start of the treatment, the mice were sacrificed, and the tumor volume was measured.

Consider “MIASHLLAYFFTELN βA RRRRRRRRR PLGLAG Ahx EEEEEEEE (MIASHLLAYFFTELN[βAla]RRRRRRRRRPLGLAG[Ahx]EEEEEEEE) [ACPP-HK2]”, for which the cell viability entry in data set [1] is reported as “able to decrease cell viability of cancer cells”. In addition, the tumor growth entry is on record as “almost blocked” in data set [2] and “strongly reduces, up to almost blocking, tumor growth” in data set [3] (60 nmoles/injection every twelve hours up to the sixtieth hour). The “tumor volume vs ACPP-SCR control” value in data set [2] (end at 72 hours) is “significantly smaller in volume than control tumors injected with ACPP-SCR”; in data set [3] (30 nmoles every 12 hours, after 48 and 96 hours), “significantly smaller in volume than the control tumors injected with ACPP-SCR”. Besides, the “toxic side effect for non-tumor tissues and the whole organism” value in data set [4] (expert's conclusion after autopsy and histology) is listed as “no toxic side effect”. In addition, the “histological characteristics of formalin-fixed sections of internal organs” value in data set [5] is “without finding any differences among different experimental groups (ACPP-SCR and ACPP-HK2) or any tissue alterations”. In addition, the “tumor growth (tumor volume)” value in data set [6] (2 nmol/injection into the tumors every 12 hours up to 60 hours, measured at 72 hours, vs saline) is “reduce tumor growth”. The “efficacy on tumor growth, ACPP-HK2 compared with pepHK2” value in data set [6] (2 nmol/injection into the tumors, 72 hours) is given as “more effective”.
As to “SHLLAYFFTELN-GRKKRRQRRRG-PLGLAG-Ahx-EEEEEEEE (SHLLAYFFTELNGRKKRRQRRRGPLGLAG[Ahx]EEEEEEEE) [ACPP-HK2 III, variant ACPP-HK2 III of the peptide ACPP-HK2, 38-amino acid peptide]”, the cell viability entry in data set [1] is listed as “able to decrease cell viability of cancer cells”.
On the same count and under the same terms, the result for “SHLLAYFFTELN-RRRRRRRRR-PLGLAG-Ahx-EEEEEEEE (SHLLAYFFTELNRRRRRRRRRPLGLAG[Ahx]EEEEEEEE) [ACPP-HK2 II, variant ACPP-HK2 II of the peptide ACPP-HK2, 36-amino acid peptide]” reads “able to decrease cell viability of cancer cells”; that for “SHLLAYFFTELNHD-RRRRRRRRR-PLGLAG-Ahx-EEEEEEEE (SHLLAYFFTELNHDRRRRRRRRRPLGLAG[Ahx]EEEEEEEE) [ACPP-HK2 IV, variant ACPP-HK2 IV of the peptide ACPP-HK2, 38-amino acid peptide]”, “able to decrease cell viability of cancer cells”.
Turning to “VGAHAGEYGAEALER βA RRRRRRRRR PLGLAG Ahx EEEEEEEE (VGAHAGEYGAEALER[βAla]RRRRRRRRRPLGLAG[Ahx]EEEEEEEE) [ACPP-SCR, reference compound]”, in data set [4] (mice of the experiments of FIGS. 2, 3 and 4, heart, skeletal muscle, kidney, spleen, lung, liver, brain and others), the “histological characteristics of formalin-fixed sections of internal organs” value is “without finding any differences among different experimental groups (ACPP-SCR and ACPP-HK2) or any tissue alterations”.
